Assay results published in the NIST ThermoML archive (doi:10.1016/j.fluid.2008.07.018).
± gives the expanded uncertainty stated by the source.

Key:
[1] = refractive index (Na D-line) (dimensionless); settings: 298.15 K; 101.33 kPa; Liquid; Standard Abbe refractometry
[2] = Liquid; for mass density: 298.15 K, 101.33 kPa

Row | vapor or sublimation pressure ([2]; 472.55 K) | vapor or sublimation pressure ([2]; 424.35 K) | Structure (SMILES) | refractive index [1] | mass density [2] | vapor or sublimation pressure ([2]; 427.05 K) | vapor or sublimation pressure ([2]; 402.85 K) | vapor or sublimation pressure ([2]; 455.25 K)
1 | 95.5 ± 4 kPa | – | CC(=O)c1ccccc1 [acetophenone] | 1.5342 ± 0.0007 | 1023.8 ± 3 kg/m3 | – | – | –
2 | – | 95.5 ± 3.3 kPa | CN(C)C=O [dimethylformamide] | 1.4219 ± 0.0007 | 943.9 ± 1.6 kg/m3 | – | – | –

Further lines, the molecule ahead of its results:

Row | Structure (SMILES) | vapor or sublimation pressure ([2]; 472.55 K) | vapor or sublimation pressure ([2]; 424.35 K) | refractive index [1] | mass density [2] | vapor or sublimation pressure ([2]; 427.05 K) | vapor or sublimation pressure ([2]; 402.85 K) | vapor or sublimation pressure ([2]; 455.25 K)
3 | Brc1ccccc1 [bromobenzene] | – | – | 1.5571 ± 0.0007 | 1488.1 ± 4.8 kg/m3 | 95.5 ± 4 kPa | – | –
4 | Clc1ccccc1 [chlorobenzene] | – | – | 1.5218 ± 0.0007 | 1106.3 ± 3.3 kg/m3 | – | 95.5 ± 4 kPa | –
5 | CC(=O)N(C)C [N,N-dimethylethanamide] | – | – | 1.4357 ± 0.0007 | 936.3 ± 2.7 kg/m3 | – | – | –
6 | Nc1ccccc1 [aniline] | – | – | 1.5836 ± 0.0007 | 1017.6 ± 3 kg/m3 | – | – | 95.5 ± 4 kPa
